The text below walks through data of patent US12686692B2, “KRas G12D inhibitors” (Mirati Therapeutics, Inc., priority 2020, dated 2026).

The assay has as its target KRas G12D (Homo sapiens, UniProt P01116, G12D). Nature of the assay: KRas G12D Binding Assay (TR-FRET displacement of labeled tracer). Also on record: corresponding to amino acids 1:169, produced at Array BioPharma; biotin (protein is biotinylated). As to conditions: TR-FRET displacement of Cy5 labelled tracer, biotinylated GDP-loaded KRAS G12D (aa 1:169), 60 minute incubation at 22° C. How it is done:
This Example illustrates that exemplary compounds of the present invention bind to KRas G12D and are capable of displacing a labeled tracer ligand occupying the KRas G12D binding site.
The ability of a compound to bind to KRAS G12D was measured using a TR-FRET displacement assay. Biotinylated GDP-loaded recombinant human KRAS G12D (corresponding to amino acids 1:169, produced at Array BioPharma) was incubated with a custom-made Cy5 labelled tracer, europium labelled streptavidin and compound (2% DMSO final) in buffer (50 mM HEPES [pH 7.5], 5 mM MgCl2, 0.005% Tween-20 & 1 mM DTT). After a 60 minute incubation at 22° C., the reaction was measured using a PerkinElmer EnVision multimode plate reader via TR-FRET dual wavelength detection, and the percent of control (POC) calculated using a ratiometric emission factor. […] The POC values were fit to a 4-parameter logistic curve and the IC50 value was determined as the concentration where the curve crosses 50 POC.
(In TR-FRET formats the signal depends on donor and acceptor labels being close together.)

KRas G12D, sequence (P01116 1-169 isoform P01116-2 G12D): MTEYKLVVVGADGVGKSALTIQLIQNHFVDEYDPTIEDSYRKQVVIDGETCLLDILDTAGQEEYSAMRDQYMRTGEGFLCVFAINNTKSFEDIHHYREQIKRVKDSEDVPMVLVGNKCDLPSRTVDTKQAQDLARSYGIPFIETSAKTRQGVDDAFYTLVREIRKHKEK

Consider `CN1CCC[C@H]1COc1nc2c(c(N3C[C@H]4CC[C@@H](C3)N4)n1)CCN(c1cccc3cc(O)cc(Cl)c13)C2` [Example 113, 5-(4-((1R,5S)-3,8-diazabicyclo[3.2.1]octan-3-yl)-2-(((S)-1-methylpyrrolidin-2-yl)methoxy)-5,6-dihydropyrido[3,4-d]pyrimidin-7(8H)-yl)-4-chloronaphthalen-2-ol], for which the IC50 (usually the point on the concentration scale where inhibition reaches its midpoint) was 807 nM. In other words, the sub-micromolar range.
The same measure for `c1cc2c(c(N3CCc4c(nc(OCC56CCCN5CCC6)nc4N4C[C@H]5CC[C@@H](C4)N5)C3)c1)C(C1CC1)CC2` (stereo partly drawn) [Example 102, 4-((1R,5S)-3,8-diazabicyclo[3.2.1]octan-3-yl)-7-(3-cyclopropyl-2,3-dihydro-1H-inden-4-yl)-2-((tetrahydro-1H-pyrrolizin-7a(5H)-yl)methoxy)-5,6,7,8-tetrahydropyrido[3,4-d]pyrimidine]: 654 nM; for `CCc1cccc2cccc(N3CCc4c(nc(OC[C@@]56CCCN5C[C@H](F)C6)nc4[C@@H]4C[C@H]5CC[C@@H](C4)N5)C3)c12` [Example 122, 4-((1R,3s,5S)-8-azabicyclo[3.2.1]octan-3-yl)-7-(8-ethylnaphthalen-1-yl)-2-(((2R,7aS)-2-fluorotetrahydro-1H-pyrrolizin-7a(5H)-yl)methoxy)-5,6,7,8-tetrahydropyrido[3,4-d]pyrimidine]: 234 nM; for `CN1CCC[C@H]1COc1nc2c(c(N3C[C@H]4CC[C@@H](C3)N4)n1)CCN(c1cccc3c(F)cccc13)C2` [Example 16, 4-((1R,5S)-3,8-diazabicyclo[3.2.1]octan-3-yl)-7-(5-fluoronaphthalen-1-yl)-2-(((S)-1-methylpyrrolidin-2-yl)methoxy)-5,6,7,8-tetrahydropyrido[3,4-d]pyrimidine]: 1760 nM.
The same measure for `CN1CCC[C@H]1COc1nc2c(c(N3CC4CC(O)(C(F)F)C(C3)N4)n1)CCN(c1cccc3cccc(Cl)c13)C2` (stereo partly drawn) [Example 41, 3-(7-(8-chloronaphthalen-1-yl)-2-(((S)-1-methylpyrrolidin-2-yl)methoxy)-5,6,7,8-tetrahydropyrido[3,4-d]pyrimidin-4-yl)-6-(difluoromethyl)-3,8-diazabicyclo[3.2.1]octan-6-ol]: 3130 nM; for `CC(C)c1ccccc1N1CCc2c(nc(OCC34CCCN3[C@@H](COC(=O)N(C)C)CC4)nc2N2CC3CCC(C2)N3)C1` (stereo partly drawn) [Example 32, (7a-(((4-((1R,5S)-3,8-diazabicyclo[3.2.1]octan-3-yl)-7-(2-isopropylphenyl)-5,6,7,8-tetrahydropyrido[3,4-d]pyrimidin-2-yl)oxy)methyl)hexahydro-1H-pyrrolizin-3-yl)methyl dimethylcarbamate (trans enantiomers)]: 1170 nM.
Take `CN1CCC[C@H]1COc1nc2c(c(N3C[C@H]4CC[C@@H](C3)N4)n1)CCN(c1nc(N)cc3ccccc13)C2` [Example 60, 1-(4-((1R,5S)-3,8-diazabicyclo[3.2.1]octan-3-yl)-2-(((S)-1-methylpyrrolidin-2-yl)methoxy)-5,8-dihydropyrido[3,4-d]pyrimidin-7(6H)-yl)isoquinolin-3-amine]: the IC50 is greater than 10000 nM.
The figure for `CCc1cccc2cccc(N3CCc4c(nc(OC[C@@]56CCCN5C[C@H](F)C6)nc4C4CC5CCC(N5)C4O)C3)c12` (stereo in doubt) [Example 123, (1S,3R,5R)-3-(7-(8-ethylnaphthalen-1-yl)-2-(((2R,7aS)-2-fluorotetrahydro-1H-pyrrolizin-7a(5H)-yl)methoxy)-5,6,7,8-tetrahydropyrido[3,4-d]pyrimidin-4-yl)-8-azabicyclo[3.2.1]octan-2-ol] is 508 nM.
The same measure for `CN1CCC[C@H]1COc1nc2c(c(N3C[C@H]4CC[C@@H](C3)N4)n1)CCN(c1cccc3c(Cl)cccc13)C2` [Example 15, 4-((1R,5S)-3,8-diazabicyclo[3.2.1]octan-3-yl)-7-(5-chloronaphthalen-1-yl)-2-(((S)-1-methylpyrrolidin-2-yl)methoxy)-5,6,7,8-tetrahydropyrido[3,4-d]pyrimidine]: 7900 nM.
The same measure for `CN1CCC[C@H]1COc1nc2c(c(N3C[C@H]4C[C@@H](CCN)[C@@H](C3)N4)n1)CCN(c1cccc3cccc(Cl)c13)C2` [Example 39, 2-((1R,5S,6R)-3-(7-(8-chloronaphthalen-1-yl)-2-(((S)-1-methylpyrrolidin-2-yl)methoxy)-5,6,7,8-tetrahydropyrido[3,4-d]pyrimidin-4-yl)-3,8-diazabicyclo[3.2.1]octan-6-yl)ethan-1-amine]: 2690 nM.
`CN1CCC[C@H]1COc1nc2c(c(N3CC4CCC(CC#N)(C3)N4)n1)CCN(c1cccc3cccc(Cl)c13)C2` (stereo partly drawn) [Example 42, 2-(3-(7-(8-chloronaphthalen-1-yl)-2-(((S)-1-methylpyrrolidin-2-yl)methoxy)-5,6,7,8-tetrahydropyrido[3,4-d]pyrimidin-4-yl)-3,8-diazabicyclo[3.2.1]octan-1-yl)acetonitrile] gave an IC50 of 1800 nM. This IC50 and that of the compound before are within 1.5-fold of each other.
The figure for `FC1(F)CCc2c(N3CCc4c(nc(OCC56CCCN5CCC6)nc4N4C[C@H]5CC[C@@H](C4)N5)C3)cccc21` [Example 101, 4-((1R,5S)-3,8-diazabicyclo[3.2.1]octan-3-yl)-7-(1,1-difluoro-2,3-dihydro-1H-inden-4-yl)-2-((tetrahydro-1H-pyrrolizin-7a(5H)-yl)methoxy)-5,6,7,8-tetrahydropyrido[3,4-d]pyrimidine] is 2490 nM; for `COC[C@H]1C[C@@H]2CN(c3nc(OC[C@@H]4CCCN4C)nc4c3CCN(c3cccc5cccc(Cl)c35)C4)C[C@H]1N2` (single isomer, unassigned) [Example 94] it is 852 nM; for `CNC(=O)OC[C@H]1CCC2(COc3nc4c(c(N5CC6CCC(C5)N6)n3)CCN(c3cccc5cccc(C)c35)C4)CCCN12` (stereo partly drawn) [Example 21, (7a-(((4-((1R,5S)-3,8-diazabicyclo[3.2.1]octan-3-yl)-7-(8-methylnaphthalen-1-yl)-5,6,7,8-tetrahydropyrido[3,4-d]pyrimidin-2-yl)oxy)methyl)hexahydro-1H-pyrrolizin-3-yl)methyl methylcarbamate (trans enantiomers)] it is 12.3 nM.
The figure for `CN1CCC[C@H]1COc1nc2c(c(N3C[C@H]4C[C@@H](C#N)[C@@H](C3)N4)n1)CCN(c1cccc3cccc(Cl)c13)C2` [Example 92, (1R,5S,6R)-3-(7-(8-chloronaphthalen-1-yl)-2-(((S)-1-methylpyrrolidin-2-yl)methoxy)-5,6,7,8-tetrahydropyrido[3,4-d]pyrimidin-4-yl)-3,8-diazabicyclo[3.2.1]octane-6-carbonitrile] is 5490 nM; for `CCCCc1cccc2cccc(N3CCc4c(nc(OC[C@@H]5CCCN5C)nc4N4C[C@H]5CC[C@@H](C4)N5)C3)c12` [Example 81, 4-((1R,5S)-3,8-diazabicyclo[3.2.1]octan-3-yl)-7-(8-butylnaphthalen-1-yl)-2-(((S)-1-methylpyrrolidin-2-yl)methoxy)-5,6,7,8-tetrahydropyrido[3,4-d]pyrimidine] it is 710 nM; for `Clc1ccc2cccc(N3CCc4c(nc(OCC56CCCN5CCC6)nc4N4C[C@H]5CC[C@@H](C4)N5)C3)c2c1Cl` [Example 12, 4-((1R,5S)-3,8-diazabicyclo[3.2.1]octan-3-yl)-7-(7,8-dichloronaphthalen-1-yl)-2-((tetrahydro-1H-pyrrolizin-7a(5H)-yl)methoxy)-5,6,7,8-tetrahydropyrido[3,4-d]pyrimidine] it is 345 nM.
The figure for `c1cc2c(c(N3CCc4c(nc(OCC56CCCN5CCC6)nc4N4C[C@H]5CC[C@@H](C4)N5)C3)c1)CCC2` [Example 104, 4-((1R,5S)-3,8-diazabicyclo[3.2.1]octan-3-yl)-7-(2,3-dihydro-1H-inden-4-yl)-2-((tetrahydro-1H-pyrrolizin-7a(5H)-yl)methoxy)-5,6,7,8-tetrahydropyrido[3,4-d]pyrimidine] is 756 nM; for `CCc1c(F)ccc2cc(O)cc(N3CCc4c(nc(OC[C@@]56CCCN5C[C@H](F)C6)nc4N4C[C@H]5CC[C@@H](C4)N5)C3)c12` [Example 118, 4-(4-((1R,5S)-3,8-diazabicyclo[3.2.1]octan-3-yl)-2-(((2R,7aS)-2-fluorohexahydro-1H-pyrrolizin-7a-yl)methoxy)-5,6-dihydropyrido[3,4-d]pyrimidin-7(8H)-yl)-5-ethyl-6-fluoronaphthalen-2-ol] it is 2.1 nM.
In turn, `Brc1cc(N2CCc3c(nc(OCC45CCCN4CCC5)nc3N3C[C@H]4CC[C@@H](C3)N4)C2)c2ccccc2c1` [Example 111, 4-((1R,5S)-3,8-diazabicyclo[3.2.1]octan-3-yl)-7-(3-bromonaphthalen-1-yl)-2-((tetrahydro-1H-pyrrolizin-7a(5H)-yl)methoxy)-5,6,7,8-tetrahydropyrido[3,4-d]pyrimidine] came in with an IC50 of 1050 nM.
